Tests used:
[1] = tested on: ENR+CD organoids (ISC to Paneth cell differentiation); experiment: Primary screen: basal (non-stimulated) lysozyme secretion LYZ.NS, 2.5-D 384-well ENR+CD organoid differentiation; type: cell-based, mouse; settings: primary screen; for Z.LYZ.NS: standard z score
Excerpt: (§1) High-throughput screening.

[2] = tested on: ENR+CD organoids (ISC to Paneth cell differentiation); experiment: Primary screen: CCh-stimulated lysozyme secretion LYZ.S, 2.5-D 384-well ENR+CD organoid differentiation; type: cell-based, mouse; settings: primary screen
Excerpt: as §1

ENR+CD organoids = experiment: Primary screen: ATP (CellTiter-Glo 3D, CTG) cell number/viability, 2.5-D 384-well ENR+CD organoids; settings: primary screen; for Z.CTG: standard z score;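 as to all read-outs here: compounds given at plating and again on day 3 over a 6-day differentiation from ENR+CV stem-cell-enriched precursors, ATP measured on day 6, plate median as control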
[3] = dose 0.08 uM, FC relative to plate median
[4] = dose 0.40 uM, FC relative to plate median
[5] = dose 2.00 uM, FC relative to plate median
[6] = dose 10.00 uM, FC relative to plate median
[7] = 1st dose row of the treatment (0.08 uM by row order; dose not reprinted)
[8] = 2nd dose row of the treatment (0.40 uM by row order; dose not reprinted)
[9] = 3rd dose row of the treatment (2.00 uM by row order; dose not reprinted)
[10] = 4th dose row of the treatment (10.00 uM by row order; dose not reprinted)

Compound	Dose.FC.LYZ.NS ([1]; dose 0.08 uM)	Z.LYZ.NS (standard z score) ([1]; dose 0.08 uM)	Dose.FC.LYZ.NS ([1]; dose 0.40 uM)	Z.LYZ.NS (standard z score) ([1]; dose 0.40 uM)	Dose.FC.LYZ.NS ([1]; dose 2.00 uM)	Z.LYZ.NS (standard z score) ([1]; dose 2.00 uM)	Dose.FC.LYZ.NS ([1]; dose 10.00 uM)	Z.LYZ.NS (standard z score) ([1]; dose 10.00 uM)	Dose.FC.LYZ.S ([2]; dose 0.08 uM)	Dose.FC.LYZ.S ([2]; dose 0.40 uM)	Dose.FC.LYZ.S ([2]; dose 2.00 uM)	Dose.FC.LYZ.S ([2]; dose 10.00 uM)	Dose.FC.CTG (ENR+CD organoids; dose 0.08 uM)	Z.CTG (standard z score) (ENR+CD organoids; dose 0.08 uM)	Dose.FC.CTG (ENR+CD organoids; dose 0.40 uM)	Z.CTG (standard z score) (ENR+CD organoids; dose 0.40 uM)	Dose.FC.CTG (ENR+CD organoids; dose 2.00 uM)	Z.CTG (standard z score) (ENR+CD organoids; dose 2.00 uM)	Dose.FC.CTG (ENR+CD organoids; dose 10.00 uM)	Z.CTG (standard z score) (ENR+CD organoids; dose 10.00 uM)	other results
O=C(NCc1cccc(O)c1)Nc1nc(-c2ccncc2)cs1 [RKI-1447]																					Dose.FC.LYZ.NS [1, 3]: −0.006 log2 fold change; Z.LYZ.NS ([1]; dose 0.08 uM): −0.055; Dose.FC.LYZ.NS [1, 4]: −0.092 log2 fold change; Z.LYZ.NS ([1]; dose 0.40 uM): −0.803; Dose.FC.LYZ.NS [1, 5]: −0.009 log2 fold change; Z.LYZ.NS ([1]; dose 2.00 uM): −0.077; Dose.FC.LYZ.NS [1, 6]: −0.183 log2 fold change; Z.LYZ.NS ([1]; dose 10.00 uM): −1.594; Dose.FC.LYZ.S [2, 3]: −0.056 log2 fold change; Dose.FC.LYZ.S [2, 4]: −0.064 log2 fold change; Dose.FC.LYZ.S [2, 5]: −0.017 log2 fold change; Dose.FC.LYZ.S [2, 6]: −0.297 log2 fold change; Dose.FC.CTG (ENR+CD organoids; [3]): −0.397 log2 fold change; Z.CTG (ENR+CD organoids; dose 0.08 uM): −0.948; Dose.FC.CTG (ENR+CD organoids; [4]): −0.184 log2 fold change; Z.CTG (ENR+CD organoids; dose 0.40 uM): −0.441; Dose.FC.CTG (ENR+CD organoids; [5]): −0.226 log2 fold change; Z.CTG (ENR+CD organoids; dose 2.00 uM): −0.540; Dose.FC.CTG (ENR+CD organoids; [6]): −0.342 log2 fold change; Z.CTG (ENR+CD organoids; dose 10.00 uM): −0.816
CC(C)c1c(C(=O)Nc2ccccc2)c(-c2ccccc2)c(-c2ccc(F)cc2)n1CC[C@@H](O)C[C@@H](O)CC(=O)[O-].CC(C)c1c(C(=O)Nc2ccccc2)c(-c2ccccc2)c(-c2ccc(F)cc2)n1CC[C@@H](O)C[C@@H](O)CC(=O)[O-].[Ca+2] [Atorvastatin Calcium]	−0.009 log2 fold change	−0.077	0.007 log2 fold change	0.062	−0.247 log2 fold change	−2.148	−0.235 log2 fold change	−2.045	0.022 log2 fold change	−0.062 log2 fold change	−0.354 log2 fold change	−0.305 log2 fold change	−0.129 log2 fold change	−0.309	−0.348 log2 fold change	−0.831	−1.085 log2 fold change	−2.591	−1.583 log2 fold change	−3.780	
COc1cc2c(cc1O)CC[C@@H]1[C@@H]2CC[C@]2(C)[C@@H](O)CC[C@@H]12 [2-Methoxyestradiol (2-MeOE2)]	0.021 log2 fold change	0.186	0.065 log2 fold change	0.566	0.005 log2 fold change	0.041	−0.139 log2 fold change	−1.209	0.189 log2 fold change	0.270 log2 fold change	0.029 log2 fold change	−0.278 log2 fold change	0.299 log2 fold change	0.714	0.401 log2 fold change	0.957	0.227 log2 fold change	0.543	−0.672 log2 fold change	−1.606	SSMD.LYZ.NS_Rep (strictly standardized mean difference) [1, 7]: 0.077; SSMD.LYZ.NS_Rep (strictly standardized mean difference) [1, 8]: 0.227; SSMD.LYZ.NS_Rep (strictly standardized mean difference) [1, 9]: 0.049; SSMD.LYZ.NS_Rep (strictly standardized mean difference) [1, 10]: −0.826; SSMD.LYZ.S_Rep (strictly standardized mean difference) [2, 7]: 1.015; Z.LYZ.S (standard z score) [2, 7]: 1.224; SSMD.LYZ.S_Rep (strictly standardized mean difference) [2, 8]: 0.831; Z.LYZ.S (standard z score) [2, 8]: 1.747; SSMD.LYZ.S_Rep (strictly standardized mean difference) [2, 9]: 0.144; Z.LYZ.S (standard z score) [2, 9]: 0.190; SSMD.LYZ.S_Rep (strictly standardized mean difference) [2, 10]: −1.135; Z.LYZ.S (standard z score) [2, 10]: −1.795; SSMD.CTG.Rep (strictly standardized mean difference) (ENR+CD organoids; [7]): 0.407; SSMD.CTG.Rep (strictly standardized mean difference) (ENR+CD organoids; [8]): 0.930; SSMD.CTG.Rep (strictly standardized mean difference) (ENR+CD organoids; [9]): 0.461; SSMD.CTG.Rep (strictly standardized mean difference) (ENR+CD organoids; [10]): −0.878
